Test results reported in patent US8067529B2, “Immunogenic T-helper epitopes from human tumour antigens and immunotherapeutic methods using said epitopes” (Immatics Biotechnologies GmbH, priority 2004, dated 2011).

What was measured:
Assay type in all cases: cell-based, human
Ii-fusion proteins = experiment: Endosomal/lysosomal targeting of the fusion proteins (chloroquin, Western blot with mAb PIN.1); details: transfectants incubated 4 h with increasing amounts of chloroquin (10-100 μM)
Experimental: Fusion proteins were detected by Western blot analysis using the mAb PIN.1 (Stressgen, Biomol, Hamburg, Germany) which binds to amino acid residues 12-28 of Ii. Briefly, cells were lysed as described (Hsieh, C. S., deRoos, P., Honey, K., Beers, C. & Rudensky, A. Y. (2002) J. Immunol. 168, 2618-2625), lysates were boiled in Laemmli loading buffer, separated on a 12% SDS-PAGE and transferred onto nitrocellulose membranes. After a saturation step with BSA, membranes were incubated for 1 h at room temperature with the mAb PIN.1 (1 μg/ml). Proteins were visualised using a peroxidase-coupled sheep anti-mouse IgG (Amersham Pharmacia, Freiburg, Germany). […] Cells were then lysed and proteins were detected by Western blot as described above.
It has already been described that the N-terminus of Ii is sufficient to target proteins into the MHC class II pathway (Sanderson, S., Frauwirth, K. & Shastri, N. (1995) Proc. Natl. Acad. Sci. U.S. A 92, 7217-7221, Wang, R. F., Wang, X., Atwood, A. C., Topalian, S. L. & Rosenberg, S. A. (1999) Science 284, 1351-1354, Malcherek, G., Wirblich, C., Willcox, N., Rammensee, H. G., Trowsdale, J. & Melms, A. (1998) Eur. J. Immunol. 28, 1524-1533). […] Cells were then lysed and fusion proteins were detected by Western blot.

T-helper cell line = experiment: T-helper cell proliferation by thymidine incorporation (stimulation index); details: T-helper cell line with irradiated autologous PBMC; 10 μM peptide or 3 μg/ml PHA; thymidine incorporation at 72 hours
Experimental: 3×10^5 matured DC were loaded for two hours with 10 μM of peptide […] (SEQ ID NO: 1) in a 24-well plate and extensively washed. Then 4×10^6 fresh autologous PBMC were added onto DC in the presence of 10 ng/ml IL-12p70 in order to favour Th-1 development. PBMC were weekly restimulated with peptide-loaded irradiated autologous PBMC in the presence of 10 U/ml IL-2 and 5 ng/ml IL-7. After 3 and 5 restimulations, T cells were pooled and tested against autologous PBMC in the presence of peptide. […]
T-helper cell activation was tested by cell proliferation as estimated by thymidine incorporation as well as cytokine secretion. […] After 54 hours, 50 μl of tritiated thymidine-containing medium (0.074 MBq/well, Hartmann Analytic, Braunschweig, Germany) was added and thymidine incorporation measured at 72 hours using a scintillation counter (Microbeta, Wallac, Freiburg, Germany). Cell proliferation is expressed as a stimulation index (S.I.), which corresponds to the ratio: (mean cpm of stimulated T cells)/(mean cpm of unstimulated T cells). IL-2 secretion was measured using the IL-2 dependent CTLL-2 cell line. […] Then, thymidine-containing-medium (0.055 MBq/well) was added for 7-8 additional hours and thymidine incorporation was measured as described above. Results are also expressed as a S.I.

IL-2 = IL-2 secretion measured with the IL-2 dependent CTLL-2 cell line; details: T-helper cell line with autologous PBMC; 10 μM peptide or 3 μg/ml PHA; 24 hours supernatant
Experimental: (§1) T-helper cell activation was tested by cell proliferation as estimated by thymidine incorporation as well as cytokine secretion. Briefly, 2×10^5 cells were incubated in triplicates in a 96-well plate with 2×10^5 irradiated autologous PBMC in the presence or absence of 10 μM peptide or 3 μg/ml PHA. After 24 hours, two portions of 50 μl supernatant were harvested and frozen and 50 μl fresh medium was added to the cells. After 54 hours, 50 μl of tritiated thymidine-containing medium (0.074 MBq/well, Hartmann Analytic, Braunschweig, Germany) was added and thymidine incorporation measured at 72 hours using a scintillation counter (Microbeta, Wallac, Freiburg, Germany). Cell proliferation is expressed as a stimulation index (S.I.), which corresponds to the ratio: (mean cpm of stimulated T cells)/(mean cpm of unstimulated T cells). IL-2 secretion was measured using the IL-2 dependent CTLL-2 cell line. Briefly, 10^4 cells were incubated in the presence of supernatants for 20-24 hours. Then, thymidine-containing-medium (0.055 MBq/well) was added for 7-8 additional hours and thymidine incorporation was measured as described above. Results are also expressed as a S.I.

IFN-γ = IFN-γ secretion by sandwich ELISA; details: peptide-induced T-cell stimulation, 10 μM peptide; 24 hours supernatant
Experimental: as §1, with “cell line. […] Then, thymidine-containing-medium” for “cell line. Briefly, 10^4 cells were incubated in the presence of supernatants for 20-24 hours. Then, thymidine-containing-medium”, “a S.I. IFN-γ, IL-4 and IL-6 secretion was measured by sandwich ELISA using antibody pairs and peroxidase-conjugated streptavidin from PharMingen and according to Manufacturer's recommendations. […] OD450 was then measured and results expressed in pg/ml according to the standards.” for “a S.I.”

IL-4 = IL-4 secretion by sandwich ELISA; details: T-helper cell line; 10 μM peptide or 3 μg/ml PHA
Experimental: as §1, with “cell line. […] Then, thymidine-containing-medium” for “cell line. Briefly, 10^4 cells were incubated in the presence of supernatants for 20-24 hours. Then, thymidine-containing-medium”, “a S.I. IFN-γ, IL-4 and IL-6 secretion was measured by sandwich ELISA using antibody pairs and peroxidase-conjugated streptavidin from PharMingen and according to Manufacturer's recommendations. […] OD450 was then measured and results expressed in pg/ml according to the standards.” for “a S.I.”

IL-6 = IL-6 secretion by sandwich ELISA; details: T-helper cell line; 10 μM peptide or 3 μg/ml PHA
Experimental: as §1, with “cell line. […] Then, thymidine-containing-medium” for “cell line. Briefly, 10^4 cells were incubated in the presence of supernatants for 20-24 hours. Then, thymidine-containing-medium”, “a S.I. IFN-γ, IL-4 and IL-6 secretion was measured by sandwich ELISA using antibody pairs and peroxidase-conjugated streptavidin from PharMingen and according to Manufacturer's recommendations. […] OD450 was then measured and results expressed in pg/ml according to the standards.” for “a S.I.”

Molecule | fusion protein amounts (Western blot band intensity) (Ii-fusion proteins) | T-cell proliferation, stimulation index (S.I.) (T-helper cell line) | IL-2 production of the T cells (IL-2) | IFN-γ secretion (IFN-γ) | IL-4 secretion (IL-4) | IL-6 secretion (IL-6)
CCN(CC)CCCC(C)Nc1ccnc2cc(Cl)ccc12 (stereo not shown) [chloroquin] | fusion protein amounts increase with chloroquin concentrations |  |  |  |  | 
NPPSMVAAGSVVAAV (listed as Homo sapiens) [cyclin D1 peptide, immunogenic HLA-DR4-presented cyclin D1 peptide antigen] |  | 5.4 | produced IL-2 in response to the peptide, although to a low extent | 3250 pg/mL | no IL-4 or IL-6 secretion | no IL-4 or IL-6 secretion
Phytohaemagglutinin [PHA] |  | 330 | still sensitive to PHA stimulation |  | highly | moderately
